In one series the test system is Human MNC. The experiment in a line: Stimulation of human MNC with MPLA in the presence of Hb-derived peptides, cytokine ELISA of supernatant. Format: cell-based. To be noted: for synergistic activity with MPLA, IL-6 release / synergistic activity in enhancing the MPLA-induced cytokine (IL-8) release, screen of native Hbγ1-peptide library: 20 h; for synergistic activity in enhancing the MPLA-induced cytokine (IL-8) release, screen of native Hbγ1-peptide library: MPLA 10 μg/ml, peptide 10 μM, FIG. 4. The protocol: Human mononuclear cells (MNC) were isolated from peripheral blood of healthy donors by density-gradient centrifugation on Ficoll gradient media (PAA Laboratories GmbH, Pasching, Austria). The cells were suspended and cultured in RPMI-1640 medium, containing […]. 50 μl of a peptide solution were incubated with 50 μl of a MPLA solution in a U-form 96 well micro cell culture plate #3799 (Corning Costar GmbH, Bodenheim, Germany) for 15 min at 37° C. After this incubation period 20 μl of heat-inactivated (56° C./30 min) human serum or RPMI-1640 medium were added. Finally, 80 μl of a MNC cell suspension was added to give a final concentration of 1 to 2×10^6 cells for culture in the absence of human serum or 1×10^6 cells for culture in the presence of serum. After a culture time of 20 h the cells were spun down and the culture supernatants were harvested. The cytokine concentrations in the supernatants were determined by matched antibody pairs for ELISA obtained from Invitrogen GmbH, Darmstadt (Germany). Mostly, each value represents the mean±SD of duplicate culture. In FIG. 3 the mean of three independent experiments is given, each of these three independent experiments having duplicate cultures.

For another series, the system named is Purified human monocytes. Briefly: Stimulation of purified human monocytes with MPLA in the presence of Hbγ1-peptides, IL-6 ELISA. Type of series: cell-based. To be noted: MPLA 1 μg/ml; peptide 1, 3, 10 μM; FIG. 9. The protocol:
FIG. 9: Synergistic effect of Hbg-23 and Hbg-32 peptide on stimulation of human monocytes with MPLA. Purified human monocytes (>95%) were stimulated with MPLA (1 μg/ml) in the presence or absence of the Hbγ1-peptides Hbg-23 and Hbg-32-107 (1, 3 and 10 μM). Control cultures were kept without MPLA. After a culture period of 20 h, the IL-6 concentration in the supernatant was determined by ELISA. Each value represents the mean±SD of duplicate cultures.
Human mononuclear cells (MNC) were isolated from peripheral blood of healthy donors by density-gradient centrifugation on Ficoll gradient media (PAA Laboratories GmbH, Pasching, Austria). The cells were suspended and cultured in RPMI-1640 medium, containing […]. 50 μl of a peptide solution were incubated with 50 μl of a MPLA solution in a U-form 96 well micro cell culture plate #3799 (Corning Costar GmbH, Bodenheim, Germany) for 15 min at 37° C. After this incubation period 20 μl of heat-inactivated (56° C./30 min) human serum or RPMI-1640 medium were added. […] The cytokine concentrations in the supernatants were determined by matched antibody pairs for ELISA obtained from Invitrogen GmbH, Darmstadt (Germany). […]
On the technique in general: An ELISA detects its analyte on a solid surface through an enzyme-linked reagent.

Series [1] can be described thus: Small angle X-ray scattering (SAXS) of MPLA aggregates. Format: physicochemical. How it is done: SAXS measurements were performed at the European Molecular Biology Laboratory (EMBL) outstation at the Hamburg synchrotron radiation facility HASYLAB using the camera X33. Diffraction patterns in the range of the scattering vector 0.1<s<1.0 nm^−1 (s=2 sin θ/λ, 2θ scattering angle and A the wavelength=0.15 nm) were recorded at 40° C. with exposure times of 1 min using an image plate detector with online readout (MAR345, MarResearch, Norderstedt/Germany). The lipid concentration was in all cases 20 mM. The s-axis was calibrated with Ag-behenate, which has a periodicity of […]. The diffraction patterns were evaluated as described previously (Howe et al. (2008a)), assigning the spacing ratios of the main scattering maxima to defined three-dimensional structures. The lamellar and cubic structures are the most relevant here. The following features characterize the supramolecular structure: • (1) lamellar: The reflections are grouped in equidistant ratios, i.e., 1, ½, ⅓, ¼, etc. of the • lamellar repeat distance dλ; • (2) cubic: The different space groups of these non-lamellar three-dimensional structures differ in the ratio of their spacings. The relation between reciprocal spacing shkl=1/dhkl and lattice constant a is
shkl=[(h^2+k^2+l^2)/a]^1/2 • (hkl=Miller indices of the corresponding set of plane).

For a further series, the system named is human memory T-cell. Briefly: Stimulation of memory T-cells in human MNC with recall antigens PPD and TT, 3H-thymidine incorporation. Format: cell-based. Particulars: FIG. 20. How it is done: For stimulation of T-lymphocytes, human MNC were cultured in RPMI-1640 medium, containing […], and 10% of inactivated human serum at a concentration of 0.5 to 1.0×10^6 cells per ml in flat-bottom 96-well tissue culture plates. To investigate the adjuvant effect of MPLA and Hbg-peptides, the recall antigens tetanus toxoid (TT) and purified protein derivatives of M. tuberculosis (PPD) (both from Statens Serum Institute, Copenhagen, Danmark) were used. After 6 days of culture, cells were labeled with ^3H-Thymidine (3HTdR (2 Ci/mmol, 0.2 μCi/culture)) and after an additional day of culture the cells were harvested on glass-filter mats for measurement of incorporated radioactivity into the DNA. The results are expressed as mean±SD of duplicate cultures.
There is a close interaction between the innate immune system, as presented by e.g. monocytes and dendritic cells, and the adaptive immune system, as presented by T-lymphocytes and B-lymphocytes. Monocytes and dendritic cells present antigenic fragments to the cells of the adaptive immune system to initiate a specific immune reaction. In addition, they support the strength and polarization of the immune response by means of the release of cytokines. […]
(Dividing cells build labelled thymidine or BrdU into new DNA.)

The nature of series [2]: Freeze-fracture transmission electron microscopy of MPLA. Format: physicochemical. Particulars: MPLA 1 mM alone or with equimolar peptide; FIG. 25. How it is done: A small amount of the samples was sandwiched between two copper profiles and frozen by plunging the sandwiches immediately into liquefied ethane-propane-mixture cooled in liquid nitrogen. Fracturing and replication were performed at −150° C. in a BAF 400T freeze-fracture device (BAL-TEC, Balzers, Liechtenstein) equipped with electron guns and a film sheet thickness monitor. For replication Pt(C) was evaporated under an angle of 35° and (C) under 90°. The replicas were placed on copper grids and cleaned with a chloroform-methanol mixture.

Series [3] can be described thus: Atomic force microscopy of MPLA dispersions. Type of series: physicochemical. Particulars: MPLA 25 μM on mica, alone or with equimolar peptide; after one hour. How it is done:
Atomic force microscopy (AFM) allows a direct look onto the morphology of lipid aggregates on a molecular scale under almost physiological conditions. This allows obtaining depth profiles of MPLA dispersions down to a resolution limit of lower than 1 nm. For the analysis, MPLA dispersions were prepared at a concentration of 25 μM in physiological saline in the absence and presence of an equimolar content of Hbg-32.

[4] abbreviates: MPLA 1 μg/ml, peptide 0.1-10 μM, FIG. 5, 19.
Where [5] appears, read: MPLA 3 μg/ml, peptide 1, 3, 10 μM, FIG. 7, 10, 12, 15, 16, 29.

With “Hbg-51: Hbg-35 alanine-scan peptide with Phe122/Ala-replacement (TVLAIHFGKEATPEVQASWQKMVTAVASAL; Hbg-51)”, the “effect of alanine replacement on the synergistic activity of Hbg-35 with MPLA, IL-6 release” value with Human MNC (alanine-scan, MPLA 3 μg/ml, peptide 3 μM, FIG. 18) is recorded as “enhanced the synergistic activity of Hbg-35”.

“Hbg-23: native overlapping 15 or 16 amino acid peptide of human Hbγ1, printed Hbγ11-125 (VTVLAIHFGKEFTPE; Hbg-23)”: in the series on Human MNC (setting [4]), the “synergistic activity with MPLA, IL-6 release” value (“synergistic activity with MPLA” for short) is “strong synergistic activity”. In the series with Human MNC (MPLA 3 μg/ml, peptide 1, 3, 10 μM, with or without 10% human serum, FIG. 8, 14), the “synergistic effect with MPLA in the absence and presence of human serum, IL-6 release” value is “synergistic effects in the absence as well as in the presence of human serum”. The “synergistic activity in enhancing the MPLA-induced cytokine (IL-8) release, screen of native Hbγ1-peptide library” value is reported as “best hits” with Human MNC and “profound synergistic activities” in the series on Human MNC (listed as No. 23). The “synergistic effect with MPLA during induction of IL-release, second batch of peptide” value in the series on Human MNC (second batch, data not shown) is given as “no synergistic effect”. In addition, the “synergism with MPLA in stimulating purified human monocytes, IL-6 release” value in the series with Purified human monocytes is reported as “synergize with MPLA”.

TPEVQASWQKMVTAVA [Hbg-69]: the “synergistic activity with MPLA” value in the series with Human MNC (setting [4]) is given as “only a minute synergistic activity or no activity at all”.

As for Monophosphoryl lipid A [MPLA], the “aggregate structure of MPLA (SAXS)” value in series [1] (MPLA alone or in the presence of peptide, 40° C., FIG. 22) is recorded as “largely multi-lamellar”. Also, the “sharp reflection (multi-lamellar periodicity), SAXS” value in series [1] (MPLA alone, FIG. 22A) stood at 4.11 nm. Further, the “adjuvant activity on the stimulation of T-memory cells with recall antigens” value in the series on human memory T-cell (PPD 1 μg/ml or TT 0.1 LF/ml, MPLA 10-1000 ng/ml) is reported as “very effective adjuvant activity”. In addition, in the series on human memory T-cell (PPD or TT induced proliferation), the “MPLA concentration sufficient to exert a nearly optimal adjuvant effect” value is at most 10 ng/mL. Also, the “morphology of MPLA aggregates (freeze-fracture electron microscopy)” value in series [2] was “very densely and lamellar packed aggregates with large sizes in the micrometer range”. Besides, the “morphology of MPLA aggregates (AFM)” value in series [3] was “densely packed multi-lamellar aggregates with some hundred nm extension in z-direction”.

Take “Hbg-25: peptide of the native Hbγ1-peptide library that includes F122, E125 and V126 (EFTPEVQASWQKMVT; Hbg-25)”: the “synergistic activity in enhancing the MPLA-induced cytokine (IL-8) release, screen of native Hbγ1-peptide library” value with Human MNC is “inactive”.

For the substance “VLAIHFGKEFTPEVQASW [Hbg-68, Hbγ1[113-130], common part structure of peptides Hbg-32 to Hbg-39]”, in the series with Human MNC (setting [4]), the “synergistic activity with MPLA” value is listed as “only a minute synergistic activity or no activity at all”.

Consider CVLAHHFGKEFTPPVQAAYQKVVAGVANAL (Hbb-67), for which the “synergistic activity with MPLA” value in the series with Human MNC (setting [5]) was “synergistically active in a similar range as Hbg-35-146m”.

Regarding “Hbg-24: native overlapping 15 or 16 amino acid peptide of human Hbγ1, Hbγ116-130 (IHFGKEFTPEVQASW; Hbg-24)”, the “synergistic activity with MPLA” value with Human MNC (setting [4]) was “strong synergistic activity”. For the same substance, the “synergistic activity in enhancing the MPLA-induced cytokine (IL-8) release, screen of native Hbγ1-peptide library” value in the series with Human MNC is given as “best hits”; in the series with Human MNC (listed as No. 24), “profound synergistic activities”.

Consider VTLAAHLPAEFTPAVHASLDKFLASVSTVL (Hba-66), for which the “synergistic activity with MPLA” value in the series on Human MNC (setting [5]) is “only a minimal synergistic activity”.

The values above are taken from patent US20160184404A1, “NOVEL HEMOGLOBIN-DERIVED PEPTIDE BASED PHARMACEUTICAL COMPOSITIONS” (CLINIQUE LA PRAIRIE, priority 2014, published 2016).
